These results are taken from article PMC12310718, “Evaluation of newly synthesized schiff base Pd(II) complexes for prostate cancer treatment through in vitro cytotoxicity and molecular mechanistic studies” (Frontiers in Chemistry, 2025).

One data set has as its system DU-145. As to the kind of experiment: MTT cytotoxicity assay, DU-145. The settings on record: mean ± SD. The class given is cell-based, human. The source says: (§1) In this investigation, two experimental groups of cancer cell lines were employed: human prostate carcinoma cells lacking prostate-specific membrane antigen (PSMA) and androgen receptor independence (DU-145 and HTB-81™), alongside human prostate carcinoma cells (PC-3 and CRL-1435™). The control group comprised non-cancerous human fibroblasts (MRC-5 and CCL-171™). All cell lines utilized in this study were procured from the American Type Culture Collection (ATCC, Manassas, VA, United States). The cells were maintained in a complete medium containing high-glucose DMEM, supplemented with 10% fetal bovine serum and 200 mM L-glutamine (reagents sourced from Sigma-Aldrich, St. Louis, MO, United States). Cultivation of the cells was conducted in 25 cm^2 flasks (Thermo Fisher Scientific, Waltham, MA, United States) at 37°C under conditions of absolute humidity and a 5% CO2 atmosphere. The cytotoxic effects of three newly synthesized Pd(II) complexes were assessed on DU-145, PC-3, and MRC-5 cell lines using the MTT assay. For comparison, the cytotoxicity of cisplatin, a clinically established chemotherapeutic agent, was also evaluated across all cell lines. Cells were harvested during their exponential growth phase, counted, and seeded at a density of 5 × 10^3 cells per well in 96-well culture plates. […] The treated cells were incubated under identical conditions (37°C, 5% CO2, absolute humidity) for durations of 24, 48, and 72 h. After incubation, the medium was removed, and an MTT solution was added to each well. The cells were then incubated for an additional 2 h to facilitate the reduction of thiazolyl blue tetrazolium bromide in the MTT solution. Subsequently, the MTT solution was carefully removed, and the resulting formazan crystals were solubilized in DMSO. […] All experiments were performed in triplicate and repeated across three independent runs. Cell viability was calculated as a percentage by dividing the absorbance of treated cells (minus blank absorbance) by the average absorbance of untreated control cells (minus blank absorbance) and multiplying by 100. % of the viable cells=absorbance of treated cell−absorbance of blank / absorbance of untreated cell−absorbance of blank * 100 […] This analysis was performed using Microsoft Office Excel 2010, leveraging its curve-fitting capabilities to determine precise inhibitory concentrations.
Background: Formazan colour is commonly taken as a measure of viable cells.

The next data set relates to MRC-5. The experiment in a line: MTT cytotoxicity assay, MRC-5 fibroblasts. Type of data set: cell-based, human. Conditions: mean ± SD.
From the text: as §1

In a further data set the test system is PC-3. The experiment in a line: MTT cytotoxicity assay, PC-3. The class given is cell-based, human. Conditions: mean ± SD.
From the text: as §1

The subject of data set [1] is DU-145 cells. As to the kind of experiment: Mitochondrial membrane potential by JC-10 staining. Type of data set: cell-based, human. Conditions: DU-145, IC50 of complex, 48 h. How it is done: JC-10 gathers in the mitochondria of living cells, forming red fluorescence aggregates. On the other hand, JC-10 is also present in a monomeric cytosolic form and dyes cells green in necrotic and apoptotic cells. Mitochondrial membrane potential was assessed using the dye JC-10. DU-145 cells were seeded at a density of 2 × 10^4 cells per well in 24-well cell culture plates and incubated in complete DMEM medium at 37°C with 5% CO2 for 24 h. […] The cells were treated for 20 min with 2.5 μM JC-10 dye in warm PBS. JC-10 accumulation in cells was evaluated using a Gramma Libero FLUO500T trinocular inverted fluorescence microscope. We used the 525/590 nm fluorescence emission ratio for our quantification analysis. We captured images using the 2020 S-EYE Setup Microscope camera and the S-EYE_Setup-1.6.0.11 software. The ImageJ program was used to analyse the images.

A short description of data set [2]: Stability assay in PBS by UV-Vis spectra. Type of data set: physicochemical. The settings on record: ∼10^–5 M, less than 0.7% DMSO, UV-Vis after 0, 24 and 48 h. How it is done:
The complex used for the testing was dissolved in the minimal amount of DMSO (dimethylsulfoxide) possible and diluted with PBS of ∼10^–5 M in concentration and less than 0.7% DMSO. UV-Vis spectra were recorded after 0, 24 and 48 h in the range 200–600 nm. Absorption spectra were recorded on UV–Vis Perkin–Elmer Lambda 35 spectrophotometer equipped with water thermostated cell.

Data set [3] can be described thus: Stability in DMSO by UV-Vis spectra. Type of data set: physicochemical. The settings on record: UV-Vis 200–600 nm after t = 0, 24, and 48 h. The protocol: UV-Vis spectra were recorded in DMSO as a solvent, at room temperature, and the data of the absorption wavelength maxima (λ max) are given in Table 3 and Figure 3. […] Further, two more bands are attributed to the ligand 1b, the medium intensity π → π* and very weak and broad n→π* transition of the imine group. Upon coordination, the π → π* band of the imine group decreases in intensity, while the new band at 393 nm, attributed to Ligand-to-Metal Charge Transfer (LMCT), appears ([Felicio et al., 2001]; [Hussain et al., 2019]). The stability of Schiff base metal complexes is a key factor influencing their performance during biological evaluations. Unstable complexes, prone to hydrolysis or degradation, may lead to reduced efficacy, altered mechanisms of action, or false-positive/negative outcomes. Palladium (II), typically adopting a square-planar geometry ([Kostić et al., 2003]), forms stable complexes with bidentate Schiff base ligands, but its coordination environment can be sensitive to ligand exchange. […] In order to determine the stability of selected complex 2b in DMSO, a series of UV-Vis spectra in the range of 200–600 nm were recorded after t = 0, 24, and 48 h (Supplementary Figure SI17) ([Marjanović et al., 2023]).

The test system of data set [4] is DU-145 cells. The experiment in a line: Clonogenic assay. The class given is cell-based, human. The settings on record: DU-145, four concentrations, 2 weeks colony formation. How it is done:
In this assay ([Franken et al., 2006]), cells are seeded at low densities and incubated for 2 weeks to allow colony formation, with colonies defined as clusters of ≥50 cells. Treated and untreated cells are compared to assess survival fractions (SF), calculated by normalizing the plating efficiency (PE) of treated cells to that of controls. Colonies are fixed with 6% glutaraldehyde, stained with 0.5% crystal violet, and colonies were quantified using ImageJ software version 1.54 with a standardized macro. Images were first converted to 8-bit grayscale, and background noise was reduced using the “Subtract Background” function. Thresholding was applied to isolate colonies, and the “Analyze Particles” tool was used to count colonies based on defined size and circularity parameters. Only colonies with an area corresponding to ≥50 cells and a circularity range of 0.3–1.0 were included. Overlapping or merged colonies were excluded unless distinct borders were visually discernible. All image processing steps were applied consistently across samples to ensure reproducibility. Data are represented as dose-response survival curves.
Plating efficiency is calculated by the following formula: PE=Number of colonies/Number of cells seeded×100%
Survival fraction is calculated when all plating efficiencies are calculated according to the formula: SF=PEtreated/PEcontrol

The subject of a further data set is CT-DNA. The experiment in a line: DNA viscosity measurement. The class given is binding, calf. Conditions: 0.01 mM DNA in PBS, [2c]/[DNA] 0.1-1. The protocol: All chemicals were used without purification, and all of them are commercially available. ^1H NMR and ^13C NMR spectra were recorded in DMSO-d6 as a solvent with a Bruker Ascend 400 (400 MHz) spectrometer. Chemical shifts are given in parts per million (δ) down from tetramethylsilane as the internal standard. For elemental analyses (C, H, O, N) were used Elementar Vario MICRO elemental analyzer. IR spectra were obtained on Perkin Elmer FT-IR spectrometer, two equipped with a DTGS detector. Mass spectra were recorded at 6546 LC/Q-TOF (Agilent, Santa Clara, CA, SAD) equipped with Jet Stream ion source and connected with 1,290 Infinity II HPLC (Agilent, Santa Clara, CA, AD). Data were collected every second in the mass area 100–1,000 Da. Molar conductance of the Pd(II) complexes was measured on freshly prepared 10^–3 M solutions in DMSO at room temperature using Crison EC-Meter basic 30+conductivity cell. The viscosity of the DNA solution was measured in the absence and presence of increasing amounts of 2c. To the 0.01 mM DNA solution in PBS, a corresponding ratio of examinated compound was added at ratio [2c]/[DNA]: 0.1; 0.2; 0.3; 0.4; 0.5; 0.6; 0.7; 0.8; 0.9 and 1. Data are presented as a plot of (η/η0)1/3 vs. ratio of [2c]/[DNA], where η is the DNA viscosity in the presence of the compound, η0 is the viscosity of DNA in buffer alone.

For the compound `N.N.[Cl][Pt][Cl]` [CP, cisplatin, reference compound], the IC50 in the data set on DU-145 (DU-145, 24 h drug exposure) came out at 22.3 ± 2.4 µM; in the data set on DU-145 (DU-145, 48 h drug exposure), 11.4 ± 1.1 µM; in the data set with DU-145 (DU-145, 72 h drug exposure), 8.2 ± 0.8 µM; in the data set on MRC-5 (MRC-5, 24 h drug exposure) it was 90.1 ± 9.2 µM; with MRC-5 (MRC-5, 48 h drug exposure), 41.9 ± 4.4 µM; with MRC-5 (MRC-5, 72 h drug exposure), 24.4 ± 0.8 µM. Also, the concentration for half-maximal inhibition (IC50) in the data set on PC-3 (PC-3, 48 h drug exposure) turned out to be 29.7 ± 3.1 µM; in the data set with PC-3 (PC-3, 72 h drug exposure) it was 21.9 ± 2.2 µM.
As for `Oc1ccc(CN=Cc2ccccc2[O][Pd][O]c2ccccc2C=NCc2ccc(O)cc2)cc1` [Complex 2a], the IC50 in the data set on DU-145 (DU-145, 24 h drug exposure) was 83.6 ± 9.2 µM; with DU-145 (DU-145, 48 h drug exposure) it was 17.5 ± 1.6 µM; in the data set with DU-145 (DU-145, 72 h drug exposure), 9.3 ± 0.9 µM; in the data set with MRC-5 (MRC-5, 24 h drug exposure), 94.3 ± 9.7 µM; in the data set with MRC-5 (MRC-5, 48 h drug exposure), 92.4 ± 9.1 µM; in the data set on MRC-5 (MRC-5, 72 h drug exposure), 83 ± 8.1 µM. In addition, the concentration for half-maximal inhibition (IC50) in the data set on PC-3 (PC-3, 24 h drug exposure) was 94.1 ± 9.1 µM; in the data set with PC-3 (PC-3, 48 h drug exposure), 89.8 ± 8.8 µM; in the data set on PC-3 (PC-3, 72 h drug exposure) it was 79.3 ± 7.7 µM. Besides, the “increase of JC-10 green/JC-10 red ratio compared to untreated cells” value (from here on “increase of JC-10 green/JC-10 red ratio”) in the data set on DU-145 cells [1] came to 2.1 fold.
As for `Oc1ccc(CCN=Cc2ccccc2[O][Pd][O]c2ccccc2C=NCCc2ccc(O)cc2)cc1` [Complex 2b], the 50% inhibitory concentration (IC50) was determined as 75.9 ± 7.3 µM in the data set on DU-145 (DU-145, 24 h drug exposure); 19.2 ± 2.1 µM in the data set on DU-145 (DU-145, 48 h drug exposure); 8.7 ± 0.8 µM with DU-145 (DU-145, 72 h drug exposure); 87.7 ± 8.8 µM in the data set on MRC-5 (MRC-5, 24 h drug exposure); 78.5 ± 7.7 µM in the data set on MRC-5 (MRC-5, 48 h drug exposure); 49.2 ± 5.1 µM in the data set with MRC-5 (MRC-5, 72 h drug exposure). Moreover, the IC50 with PC-3 (PC-3, 24 h drug exposure) was 75.2 ± 7.2 µM; with PC-3 (PC-3, 48 h drug exposure) it was 58.6 ± 5.6 µM; in the data set on PC-3 (PC-3, 72 h drug exposure), 29.1 ± 2.8 µM. Moreover, the “increase of JC-10 green/JC-10 red ratio” value in the data set with DU-145 cells [1] came to 2.9 fold. Besides, the “stability in solution (PBS)” value in data set [2] is given as “sufficient stability in solution under physiologically relevant conditions”. Moreover, the “stability in DMSO” value in data set [3] is “retaining its structural integrity without signs of ligand displacement or decomposition”.
For `C(=NCCc1c[nH]c2ccccc12)c1ccccc1[O][Pd][O]c1ccccc1C=NCCc1c[nH]c2ccccc12` [Complex 2c], the IC50 in the data set on DU-145 (DU-145, 24 h drug exposure) stood at 48.4 ± 5.1 µM; in the data set with DU-145 (DU-145, 48 h drug exposure), 11 ± 1.2 µM; with DU-145 (DU-145, 72 h drug exposure) it was 7.1 ± 0.8 µM; in the data set on MRC-5 (MRC-5, 24 h drug exposure) it was 80.7 ± 8.1 µM; in the data set with MRC-5 (MRC-5, 48 h drug exposure), 75.6 ± 7.7 µM; in the data set with MRC-5 (MRC-5, 72 h drug exposure) it was 42.3 ± 4.1 µM. In addition, the concentration for half-maximal inhibition (IC50) is 38.4 ± 3.6 µM in the data set with PC-3 (PC-3, 24 h drug exposure); 12.5 ± 1.1 µM with PC-3 (PC-3, 48 h drug exposure); 8.6 ± 0.9 µM with PC-3 (PC-3, 72 h drug exposure). In the data set with DU-145 cells [4], the “long-term antiproliferative effect (survival fraction)” value is on record as “most pronounced effect”. Moreover, in the data set with DU-145 cells [1], the “increase of JC-10 green/JC-10 red ratio” value came to 3.2 fold. The “DNA binding mode from viscosity” value with CT-DNA was “intercalates very weakly”.

Broadly, the IC50 is the concentration needed to halve the response being measured. Low values mean higher potency, high ones lower potency.
